Data on twelve molecules can be found in patent US12590126B2, “Compounds for selective disruption of protein-protein interactions” (SyntheX, Inc., priority 2017, dated 2026).

Where a SMILES comes first, the peptide text is derived from it. Where no end group is shown, it is not given here. [ ]: non-standard residue; d: D form. The star is where a group is joined. C6_5FAM = 5-carboxyfluorescein (5FAM) label attached via a 6-carbon linker to the lysine epsilon amino group, O=C(NCCCCCC(=O)*)c1ccc2c(c1)C(=O)OC21c2ccc(O)cc2Oc2cc(O)ccc21; Dansyl = CN(C)c1cccc2c(S(=O)(=O)*)cccc12; 2Nal = N[C@@H](Cc1ccc2ccccc2c1)C(=O)O; dNle = CCCC[C@@H](N)C(=O)O; Sar = CNCC(=O)O

For the first series, the system named is fresh human RBCs.
Assay: not given
Type of series: cell-based. The settings on record: red cells of human, 1 h, 250. Here is the method:
To assess the nonspecific lytic properties of each compounds disclosed herein, each mentioned compound was tested for hemolytic properties against fresh human RBCs. Briefly, donor blood was drawn into a K2EDTA anticoagulant tube from multiple O+ donors. The blood was washed 3 times in PBS. RBCs were diluted to 2% in PBS and compounds were added at various concentrations. Samples were incubated at 37 C for 1 hr, then centrifuged at 2200 rpm for 5 min. Supernatants were measured for absorbance at 450 nm or 405 nm. The percentage hemolysis was calculated as lysis relative to 1% Triton X-100 incubation.
Turning to `CCCC[C@@H](NC(=O)[C@@H](CC(C)C)NC(=O)CN(C)S(=O)(=O)c1cccc2c(N(C)C)cccc12)C(=O)N[C@H](CCCNC(=N)N)C(=O)N[C@H](CO)C(=O)N[C@@H](C(=O)N[C@H](CCCNC(=N)N)C(=O)N[C@H](CC(C)C)C(=O)N[C@H](CCCNC(=N)N)C(=O)N[C@@H](C(=O)NCC(=O)N[C@H](CC(C)C)C(=O)N[C@H](CCCNC(=N)N)C(=O)N[C@H](CCCCN)C(=O)N[C@H](CCCNC(=N)N)C(=O)N[C@H](CCCNC(=N)N)C(=O)N[C@H](CCCNC(=N)N)C(=O)N[C@H](CCCNC(=N)N)C(=O)N[C@H](CCCNC(=N)N)C(N)=O)C(C)C)C(C)C` [Compound 19, DANSYL-Sarcosine-l{d-norLeucine}rsvrlrvGlrkrrrrr-NH2] (Dansyl-[Sar][dL][dNle][dR][dS][dV][dR][dL][dR][dV]G[dL][dR][dK][dR][dR][dR][dR][dR]-NH2), the “% Hemolysis (250 uM)” value was 86%.

The test system of the next series is SSP-25 cells. Put plainly: xCELLigence cell death assay in SSP-25 cells (cellular assay for RAD51 inhibition). Type of series: cell-based. To be noted: concentration gradient added at 20 hour mark, only values with R^>0.85 shown. Here is the method: The efficacy of the peptides described herein was assessed by their ability to cause death in SSP-25 cells, which have amplification of RAD51 and are dependent on its activity.
First, 5,000 SSP25 cells were plated, and adherence and growth was measured for 20 hours using live measurements of current impedance through the plate using the xCELLigence™ instrument. At the 20 hour mark, a concentration gradient of each compound or a PBS control was added to the SSP-25 cells, which were cultured in […] RMPI media with 10% FBS. […] Only values with confidence and R^>0.85 are shown.
What is called IC50 is the point on the concentration scale where inhibition reaches its midpoint. Read a high IC50 as lower potency. Take “Ac-lmrsvrlrvGlrkaG: : : (cFΦR4) (Ac-[dL][dM][dR][dS][dV][dR][dL][dR][dV]G[dL][dR][dK][dA]GF[2Nal]RRRRQ; not fully specified (bridges); printed as Ac-lmrsvrlrvGlrkaG: : : (cFΦR4); also: core joined by ':::' to cyclo(FΦRRRRQ), junction not defined) [Compound 3]”: the half-maximal inhibitory concentration (IC50) came out at 7.3 µM. As for “Ac-lmrsvrlrvGlrkrrrrrrrk(C6_5FAM)-NH2 (Ac-[dL][dM][dR][dS][dV][dR][dL][dR][dV]G[dL][dR][dK][dR][dR][dR][dR][dR][dR][dR][dK](C6_5FAM)-NH2; SMILES CSCC[C@@H](NC(=O)[C@@H](CC(C)C)NC(C)=O)C(=O)N[C@H](CCCNC(=N)N)C(=O)N[C@H](CO)C(=O)N[C@@H](C(=O)N[C@H](CCCNC(=N)N)C(=O)N[C@H](CC(C)C)C(=O)N[C@H](CCCNC(=N)N)C(=O)N[C@@H](C(=O)NCC(=O)N[C@H](CC(C)C)C(=O)N[C@H](CCCNC(=N)N)C(=O)N[C@H](CCCCN)C(=O)N[C@H](CCCNC(=N)N)C(=O)N[C@H](CCCNC(=N)N)C(=O)N[C@H](CCCNC(=N)N)C(=O)N[C@H](CCCNC(=N)N)C(=O)N[C@H](CCCNC(=N)N)C(=O)N[C@H](CCCNC(=N)N)C(=O)N[C@H](CCCNC(=N)N)C(=O)N[C@H](CCCCNC(=O)CCCCCNC(=O)c1ccc2c(c1)C(=O)OC21c2ccc(O)cc2Oc2cc(O)ccc21)C(N)=O)C(C)C)C(C)C) [Compound 13]”, 10 µM corresponded to half-maximal inhibition (IC50). Same read-out and setting: as for “Ac-lmrsvrlrvGlrr-NH2 (Ac-[dL][dM][dR][dS][dV][dR][dL][dR][dV]G[dL][dR][dR]-NH2; SMILES CSCC[C@@H](NC(=O)[C@@H](CC(C)C)NC(C)=O)C(=O)N[C@H](CCCNC(=N)N)C(=O)N[C@H](CO)C(=O)N[C@@H](C(=O)N[C@H](CCCNC(=N)N)C(=O)N[C@H](CC(C)C)C(=O)N[C@H](CCCNC(=N)N)C(=O)N[C@@H](C(=O)NCC(=O)N[C@H](CC(C)C)C(=O)N[C@H](CCCNC(=N)N)C(=O)N[C@H](CCCNC(=N)N)C(N)=O)C(C)C)C(C)C) [Compound 4]”, the figure is 67 µM; as for “Ac-lvrsvGlrrrrrrrr-NH2 (Ac-[dL][dV][dR][dS][dV]G[dL][dR][dR][dR][dR][dR][dR][dR][dR]-NH2; SMILES CC(=O)N[C@H](CC(C)C)C(=O)N[C@@H](C(=O)N[C@H](CCCNC(=N)N)C(=O)N[C@H](CO)C(=O)N[C@@H](C(=O)NCC(=O)N[C@H](CC(C)C)C(=O)N[C@H](CCCNC(=N)N)C(=O)N[C@H](CCCNC(=N)N)C(=O)N[C@H](CCCNC(=N)N)C(=O)N[C@H](CCCNC(=N)N)C(=O)N[C@H](CCCNC(=N)N)C(=O)N[C@H](CCCNC(=N)N)C(=O)N[C@H](CCCNC(=N)N)C(=O)N[C@H](CCCNC(=N)N)C(N)=O)C(C)C)C(C)C) [Compound 5]”, 35 µM. “Ac-l{d-norLeucine}rGvrlrvGlrkrrrrGy-NH2 (Ac-[dL][dNle][dR]G[dV][dR][dL][dR][dV]G[dL][dR][dK][dR][dR][dR][dR]G[dY]-NH2; SMILES CCCC[C@@H](NC(=O)[C@@H](CC(C)C)NC(C)=O)C(=O)N[C@H](CCCNC(=N)N)C(=O)NCC(=O)N[C@@H](C(=O)N[C@H](CCCNC(=N)N)C(=O)N[C@H](CC(C)C)C(=O)N[C@H](CCCNC(=N)N)C(=O)N[C@@H](C(=O)NCC(=O)N[C@H](CC(C)C)C(=O)N[C@H](CCCNC(=N)N)C(=O)N[C@H](CCCCN)C(=O)N[C@H](CCCNC(=N)N)C(=O)N[C@H](CCCNC(=N)N)C(=O)N[C@H](CCCNC(=N)N)C(=O)N[C@H](CCCNC(=N)N)C(=O)NCC(=O)N[C@H](Cc1ccc(O)cc1)C(N)=O)C(C)C)C(C)C) [Compound 11]”: 9 µM corresponded to half-maximal inhibition (IC50). With “Ac-l{d-norLeucine}rGvrlrvGlrkrrrrrGΦ-NH2 (Ac-[dL][dNle][dR]G[dV][dR][dL][dR][dV]G[dL][dR][dK][dR][dR][dR][dR][dR]G[2Nal]-NH2; SMILES CCCC[C@@H](NC(=O)[C@@H](CC(C)C)NC(C)=O)C(=O)N[C@H](CCCNC(=N)N)C(=O)NCC(=O)N[C@@H](C(=O)N[C@H](CCCNC(=N)N)C(=O)N[C@H](CC(C)C)C(=O)N[C@H](CCCNC(=N)N)C(=O)N[C@@H](C(=O)NCC(=O)N[C@H](CC(C)C)C(=O)N[C@H](CCCNC(=N)N)C(=O)N[C@H](CCCCN)C(=O)N[C@H](CCCNC(=N)N)C(=O)N[C@H](CCCNC(=N)N)C(=O)N[C@H](CCCNC(=N)N)C(=O)N[C@H](CCCNC(=N)N)C(=O)N[C@H](CCCNC(=N)N)C(=O)NCC(=O)N[C@@H](Cc1ccc2ccccc2c1)C(N)=O)C(C)C)C(C)C) [Compound 12]”, the 50% inhibitory concentration (IC50) worked out at 17 µM. Turning to “Ac-l{d-norLeucine}rGvrlrvGlrkrrrrrrr-NH2 (Ac-[dL][dNle][dR]G[dV][dR][dL][dR][dV]G[dL][dR][dK][dR][dR][dR][dR][dR][dR][dR]-NH2; SMILES CCCC[C@@H](NC(=O)[C@@H](CC(C)C)NC(C)=O)C(=O)N[C@H](CCCNC(=N)N)C(=O)NCC(=O)N[C@@H](C(=O)N[C@H](CCCNC(=N)N)C(=O)N[C@H](CC(C)C)C(=O)N[C@H](CCCNC(=N)N)C(=O)N[C@@H](C(=O)NCC(=O)N[C@H](CC(C)C)C(=O)N[C@H](CCCNC(=N)N)C(=O)N[C@H](CCCCN)C(=O)N[C@H](CCCNC(=N)N)C(=O)N[C@H](CCCNC(=N)N)C(=O)N[C@H](CCCNC(=N)N)C(=O)N[C@H](CCCNC(=N)N)C(=O)N[C@H](CCCNC(=N)N)C(=O)N[C@H](CCCNC(=N)N)C(=O)N[C@H](CCCNC(=N)N)C(N)=O)C(C)C)C(C)C) [Compound 10]”, the IC50 came to 13 µM. On the same count and under the same terms, as for “Ac-l{d-norLeucine}rsrrlvrGlrkrrrrrGΦ-NH2 [Compound 14]”, the figure is 3500 µM. Same read-out and setting: as for “Ac-l{d-norLeucine}rsvrlr[d-norLeucine]GlrkrrrrrGΦ-NH2 (Ac-[dL][dNle][dR][dS][dV][dR][dL][dR][dNle]G[dL][dR][dK][dR][dR][dR][dR][dR]G[2Nal]-NH2; SMILES CCCC[C@@H](NC(=O)[C@@H](CCCNC(=N)N)NC(=O)[C@@H](CC(C)C)NC(=O)[C@@H](CCCNC(=N)N)NC(=O)[C@H](NC(=O)[C@@H](CO)NC(=O)[C@@H](CCCNC(=N)N)NC(=O)[C@@H](CCCC)NC(=O)[C@@H](CC(C)C)NC(C)=O)C(C)C)C(=O)NCC(=O)N[C@H](CC(C)C)C(=O)N[C@H](CCCNC(=N)N)C(=O)N[C@H](CCCCN)C(=O)N[C@H](CCCNC(=N)N)C(=O)N[C@H](CCCNC(=N)N)C(=O)N[C@H](CCCNC(=N)N)C(=O)N[C@H](CCCNC(=N)N)C(=O)N[C@H](CCCNC(=N)N)C(=O)NCC(=O)N[C@@H](Cc1ccc2ccccc2c1)C(N)=O) [Compound 16]”, the figure is 43 µM. On the same count and under the same terms, for “Ac-l{d-norLeucine}rsvrlrvGlrkrrrrrrr-NH2 (Ac-[dL][dNle][dR][dS][dV][dR][dL][dR][dV]G[dL][dR][dK][dR][dR][dR][dR][dR][dR][dR]-NH2; SMILES CCCC[C@@H](NC(=O)[C@@H](CC(C)C)NC(C)=O)C(=O)N[C@H](CCCNC(=N)N)C(=O)N[C@H](CO)C(=O)N[C@@H](C(=O)N[C@H](CCCNC(=N)N)C(=O)N[C@H](CC(C)C)C(=O)N[C@H](CCCNC(=N)N)C(=O)N[C@@H](C(=O)NCC(=O)N[C@H](CC(C)C)C(=O)N[C@H](CCCNC(=N)N)C(=O)N[C@H](CCCCN)C(=O)N[C@H](CCCNC(=N)N)C(=O)N[C@H](CCCNC(=N)N)C(=O)N[C@H](CCCNC(=N)N)C(=O)N[C@H](CCCNC(=N)N)C(=O)N[C@H](CCCNC(=N)N)C(=O)N[C@H](CCCNC(=N)N)C(=O)N[C@H](CCCNC(=N)N)C(N)=O)C(C)C)C(C)C) [Compound 9]” the value was 20 µM; for “Ac-rrrrrraGphlrkvralrslGlrlaq-NH2 (Ac-[dR][dR][dR][dR][dR][dR][dA]G[dP][dH][dL][dR][dK][dV][dR][dA][dL][dR][dS][dL]G[dL][dR][dL][dA][dQ]-NH2; SMILES CC(=O)N[C@H](CCCNC(=N)N)C(=O)N[C@H](CCCNC(=N)N)C(=O)N[C@H](CCCNC(=N)N)C(=O)N[C@H](CCCNC(=N)N)C(=O)N[C@H](CCCNC(=N)N)C(=O)N[C@H](CCCNC(=N)N)C(=O)N[C@H](C)C(=O)NCC(=O)N1CCC[C@@H]1C(=O)N[C@H](Cc1c[nH]cn1)C(=O)N[C@H](CC(C)C)C(=O)N[C@H](CCCNC(=N)N)C(=O)N[C@H](CCCCN)C(=O)N[C@@H](C(=O)N[C@H](CCCNC(=N)N)C(=O)N[C@H](C)C(=O)N[C@H](CC(C)C)C(=O)N[C@H](CCCNC(=N)N)C(=O)N[C@H](CO)C(=O)N[C@H](CC(C)C)C(=O)NCC(=O)N[C@H](CC(C)C)C(=O)N[C@H](CCCNC(=N)N)C(=O)N[C@H](CC(C)C)C(=O)N[C@H](C)C(=O)N[C@H](CCC(N)=O)C(N)=O)C(C)C) [Compound 6]”, 417 µM.
